Holding throughout (format): physicochemical
Data set [1] is described as follows: Absorption spectrum of optical filters containing the cyanine compound (λmax, half bandwidth). Particulars: Example 3: PET-protected glass plate with dye-containing acrylic binder layer. Here is the method: A binder composition having the above formulation was applied to a 188 μm thick PET film having been surface treated for adhesion improvement with a bar coater #9 and dried at 80° C. for 30 seconds. The PET film was hot bonded to a 0.9 mm thick alkali glass plate to prepare a PET-protected glass plate having a light absorbing dye-containing binder layer between the glass substrate and the PET film.

The nature of data set [2]: Evaluation of solubility in methyl ethyl ketone (MEK). As to conditions: in methyl ethyl ketone (MEK) at 20° C.; % by weight; tested from 0.1 to 0.3% by 0.05%. The protocol:
The test compound was added to MEK at 20° C. in an amount corresponding to a concentration varying from 0.1 to 0.3% by weight by 0.05% by weight to see whether it dissolved or not.

Data set [3] can be described thus: Decomposition temperature in TG-DTA. As to conditions: 100 ml/min nitrogen stream; temperature rise 10° C./min. The protocol:
Decomposition Temperature in TG-DTA (100 ml/min nitrogen stream; temperature rise: 10° C./min): 281° C.

Data set [4] in a line: UV transmission and reflection spectra of spin-coated specimens (optical recording material). Particulars: for Reflected Light Intensity at 650 nm: expressed relatively to that at λmax; for Reflected Light Intensity at 650 nm / Reflected Light λmax: incidence angle 5°; for Reflected Light λmax: specimen as in Evaluation Example 3; for Transmitted Light λmax: specimen spin coated on polycarbonate plate as in Evaluation Example 3. Here is the method:
(§1) The test compound shown in Table 2 below was dissolved in a 1:1 (by volume) mixed solvent of MEK and 2,2,3,3-tetrafluoropropan-1-ol to prepare a 1 wt % solution. The solution was applied to a 20 mm×20 mm polycarbonate plate by spin coating at 2000 rpm for 60 seconds to prepare a specimen. The UV absorption spectrum of the specimen was determined. The specimen was then irradiated with light of 55000 lux, and the exposure time required for the absorption retention (as defined in Evaluation Example 2) to decrease to 50% was measured.
Specimens were prepared in the same manner as in Evaluation Example 3. The UV transmission spectrum and the UV reflection spectrum (incidence angle: 5°) of the specimens were measured. In Table 4, the reflected light intensity at 650 nm is expressed relatively to that at λmax.

Data set [5] in a line: Evaluation of light resistance (absorption retention halving time). As to conditions: film spin coated on polycarbonate plate; light of 55000 lux; exposure time for absorption retention to decrease to 50%. The protocol:
as §1

Molecules are shown by their SMILES. Bounds are passed on as bounds.

In the case of `Cn1c(-c2ccccc2)c(C2=C([O-])/C(=C/C3=[N+](C)c4ccccc4C3(C)C)C2=O)c2ccccc21` [Compound No. 26], in data set [1], the “Half Bandwidth” value is on record as 34 nm and the λmax came to 606 nm. In data set [2], the “Solubility: soluble at” value is “soluble at 0.3%”. Also, in data set [3], the “Decomposition Temperature in TG-DTA” value is 273 °C.
In the case of `CC(C)CCn1cc(C2=C([O-])/C(=C/C3=[N+](C)c4ccccc4C3(C)C)C2=O)c2ccccc21` [Compound No. 3], in data set [4], the “Reflected Light Intensity at 650 nm” value amounted to 100%, the “Reflected Light λmax” value is recorded as 651 nm and the “Transmitted Light λmax” value is recorded as 608 nm. Further, in data set [5], the “Absorption Retention Halving Time” value was 26 h.
Consider `CCCCn1c(C)c(C2=C([O-])/C(=C3/C(C)=[N+](CCCC)c4ccccc43)C2=O)c2ccccc21` [Comp. Compound 2, reference compound], for which the “Solubility: insoluble at” value in data set [2] is on record as “insoluble at 0.1%”.
`Cn1cc(C2=C([O-])/C(=C/C3=[N+](C)c4ccc5ccccc5c4C34CCCCC4)C2=O)c2ccccc21` [Compound No. 4]: in data set [2], the “Solubility: insoluble at” value is under 0.2% and the “Solubility: soluble at” value was at least 0.15%. Further, the “Decomposition Temperature in TG-DTA” value in data set [3] was found to be 259 °C.
On to `CC(C)CC[N+]1=C(/C=C2\C(=O)C(c3cn(C)c4ccccc34)=C2[O-])C(C)(C)c2ccccc21` [Compound No. 5], for which, in data set [1], the “Half Bandwidth” value was 29 nm and the λmax worked out at 587 nm. In addition, in data set [2], the “Solubility: soluble at” value is reported as “soluble at 0.3%”. Moreover, the “Decomposition Temperature in TG-DTA” value in data set [3] was 271 °C. Moreover, in data set [4], the “Reflected Light Intensity at 650 nm” value was 95.9%, the “Reflected Light λmax” value was 656 nm and the “Transmitted Light λmax” value is on record as 611 nm. Also, in data set [5], the “Absorption Retention Halving Time” value was determined as 38 h.
Regarding `Cc1[nH]c2ccc(F)cc2c1C1=C([O-])/C(=C/C2=[N+](C)c3ccccc3C2(C)C)C1=O` [Compound No. 22], in data set [1], the “Half Bandwidth” value was 33 nm and the λmax was found to be 590 nm. Moreover, the “Decomposition Temperature in TG-DTA” value in data set [3] was 295 °C.
Turning to `CC1=[N+](C)c2ccccc2/C1=C1/C(=O)C(c2c(C)n(C)c3ccccc23)=C1[O-]` [Comp. Compound 1, reference compound], in data set [2], the “Solubility: insoluble at” value is recorded as “insoluble at 0.1%”.
In the case of `Cc1c(C2=C([O-])/C(=C/C3=[N+](C)c4ccccc4C3(C)C)C2=O)c2ccccc2n1C` [Compound No. 14], in data set [1], the “Half Bandwidth” value was 30 nm and the λmax was 602 nm. Besides, the “Solubility: soluble at” value in data set [2] was “soluble at 0.3%”. Further, the “Decomposition Temperature in TG-DTA” value in data set [3] is 287 °C.
For `Cc1c(C2=C([O-])/C(=C/C3=[N+](C)c4ccccc4C3(C)C)C2=O)c2cc([N+](=O)[O-])ccc2n1CCC(C)C` [Compound No. 23], in data set [1], the “Half Bandwidth” value is given as 36 nm and the λmax stood at 597 nm.

Source of the values: patent US20040197705A1, “Cyanide compound, optical filter, and optical recording material” (ASAHI DENKA CO., LTD., priority 2003, published 2004).
